How the values were obtained:
U937 = experiment: cells; assay type: cell-based; settings: Homo sapiens, U-937, 24 h
MM.1S = experiment: cells; assay type: cell-based; settings: Homo sapiens, MM1.S, 24 h
MM.1R = experiment: cells; assay type: cell-based; settings: Homo sapiens, 24 h
K562 = experiment: cells; assay type: cell-based; settings: Homo sapiens, K562, 24 h
K562/ADR = experiment: cells; assay type: cell-based; settings: Homo sapiens, 24 h
HeLa = experiment: cells; assay type: cell-based; settings: Homo sapiens, 24 h
LO2 = experiment: cells; assay type: cell-based; settings: Homo sapiens, L02, 24 h
NIH3T3 = experiment: cells; assay type: cell-based; settings: Mus musculus, NIH3T3, 24 h
[1] = test system: CBL-resistant K562 cell line; assay type: cell-based, Human; settings: K562, 24-h incubation, Annexin-V
[2] = test system: primary chronic lymphocytic leukemia (CLL) cells; assay type: cell-based, Human; settings: treatment with 50 μM
[3] = test system: 17.7 kb segment of nDNA at the b-globin gene and 8.9 kb fragment of mtDNA; experiment: DNA damage by PCR amplification of nDNA and mtDNA; assay type: cell-based; settings: PCR amplification after cell treatment
[4] = test system: peripheral blood mononuclear cells (PBMCs) from normal healthy donors; settings: treatment with 50 μM

SMILES: O=C(O)CCCc1ccc(N(CCCl)CCCl)cc1 [CBL, chlorambucil]
- IC50 (U937): 45.7 ± 3.71 µM
- IC50 (MM.1S): 47.4 ± 5.08 µM
- IC50 (MM.1R): 236 ± 16.9 µM
- IC50 (K562): 417 ± 27.9 µM
- IC50 (K562/ADR): > 1000 µM
- IC50 (HeLa): 321 ± 33.2 µM
- IC50 (LO2): > 600 µM
- IC50 (NIH3T3): > 600 µM
- apoptotic cell population [1]: 11.24%
- CLL cells killed [2]: 32.3%
- DNA damage in nuclear and mitochondrial genome [3]: primarily damaged nDNA with very few mitochondrial lesions
- PBMCs killed [4]: 11%

— PMC5508973 (ChemMedChem, 2017)
